{"source": "ChEMBL document CHEMBL1138834", "about": "“Zn2+-chelating motif-tethered short-chain fatty acids as a novel class of histone deacetylase inhibitors” (J Med Chem, 2004)", "key": {"Histone deacetylase [1]": {"target": "Histone deacetylase", "assay": "Inhibitory concentration against histone deacetylase (HDAC); Value ranges from 10-20 uM", "type": "protein assay"}, "Histone deacetylase [2]": {"target": "Histone deacetylase", "assay": "Inhibitory concentration against histone deacetylase (HDAC); Value ranges from 5-80 uM", "type": "protein assay"}, "Histone deacetylase [3]": {"target": "Histone deacetylase", "assay": "Inhibition of histone deacetylase (HDAC) activity in DU-145 nuclear extracts", "type": "protein assay, Homo sapiens"}, "Histone deacetylase [4]": {"target": "Histone deacetylase", "assay": "Inhibitory concentration against histone deacetylase (HDAC); Value ranges from 5-8 uM", "type": "protein assay"}, "DU-145": {"system": "DU-145", "assay": "Effect of HTPB on DU-145 Cell viability; high degree of sensitivity, Range 0.5-1", "type": "functional, cell-based", "details": "Homo sapiens"}}}
{"compound": "CCCC(CCC)C(=O)Nc1ccc(/C=C/C(=O)NO)cc1", "values": [{"measurement": "IC50", "setting": "Histone deacetylase [1]", "value": "< 20", "unit": "µM"}]}
{"compound": "CCCC(CCC)C(=O)Nc1ccc(CC(=O)NO)cc1", "values": [{"measurement": "IC50", "setting": "Histone deacetylase [2]", "value": "< 80", "unit": "µM"}]}
{"compound": "Nc1ccccc1NC(=O)c1ccc(CNC(=O)Cc2ccccc2)cc1", "values": [{"measurement": "IC50", "setting": "Histone deacetylase [3]", "value": 5.2, "unit": "µM"}]}
{"compound": "O=C(CCc1ccc(NC(=O)CCCc2ccccc2)cc1)NO", "values": [{"measurement": "IC50", "setting": "Histone deacetylase [3]", "value": 0.53, "unit": "µM"}]}
{"compound": "CCCC(CCC)C(=O)Nc1ccc(CC(=O)Nc2ccccc2N)cc1", "values": [{"measurement": "IC50", "setting": "Histone deacetylase [3]", "value": 80, "unit": "µM"}]}
{"compound": "CCCC(=O)Nc1ccc(CCC(=O)NO)cc1", "values": [{"measurement": "IC50", "setting": "Histone deacetylase [3]", "value": 1.6, "unit": "µM"}]}
{"compound": "CCCC(CCC)C(=O)Nc1ccc(C(=O)NO)cc1", "values": [{"measurement": "IC50", "setting": "Histone deacetylase [4]", "value": "< 8", "unit": "µM"}]}
{"compound": "CCCC(=O)Nc1ccc(C(=O)NO)cc1", "values": [{"measurement": "IC50", "setting": "Histone deacetylase [3]", "value": 1.5, "unit": "µM"}]}
{"compound": "CCCC(CCC)C(=O)NCc1ccc(C(=O)NO)cc1", "values": [{"measurement": "IC50", "setting": "Histone deacetylase [4]", "value": "< 8", "unit": "µM"}]}
{"compound": "CCCC(CCC)C(=O)Nc1ccc(CCC(=O)NO)cc1", "values": [{"measurement": "IC50", "setting": "Histone deacetylase [3]", "value": 5, "unit": "µM"}]}
{"compound": "CCCC(CCC)C(=O)Nc1ccc(C(=O)Nc2ccccc2N)cc1", "values": [{"measurement": "IC50", "setting": "Histone deacetylase [1]", "value": "< 20", "unit": "µM"}]}
{"compound": "CCCC(CCC)C(=O)NCc1ccc(C(=O)Nc2ccccc2N)cc1", "values": [{"measurement": "IC50", "setting": "Histone deacetylase [4]", "value": "< 8", "unit": "µM"}]}
{"compound": "CCCC(=O)NCc1ccc(C(=O)NO)cc1", "values": [{"measurement": "IC50", "setting": "Histone deacetylase [3]", "value": 3.6, "unit": "µM"}]}
{"compound": "CCCC(CCC)C(=O)Nc1ccc(/C=C/C(=O)Nc2ccccc2N)cc1", "values": [{"measurement": "IC50", "setting": "Histone deacetylase [1]", "value": "< 20", "unit": "µM"}]}
{"compound": "O=C(CCCc1ccccc1)Nc1ccc(C(=O)NO)cc1", "values": [{"measurement": "IC50", "setting": "DU-145", "value": 1, "unit": "µM"}, {"measurement": "IC50", "setting": "Histone deacetylase [3]", "value": 0.044, "unit": "µM"}]}
{"compound": "O=C(Cc1ccccc1)NCc1ccc(C(=O)NO)cc1", "values": [{"measurement": "IC50", "setting": "Histone deacetylase [3]", "value": 2.5, "unit": "µM"}]}
{"compound": "O=C(CCCc1ccccc1)NCc1ccc(C(=O)NO)cc1", "values": [{"measurement": "IC50", "setting": "Histone deacetylase [3]", "value": 1.2, "unit": "µM"}]}
{"compound": "O=C(CCc1ccc(NC(=O)Cc2ccccc2)cc1)NO", "values": [{"measurement": "IC50", "setting": "Histone deacetylase [3]", "value": 0.67, "unit": "µM"}]}
{"compound": "O=C(Cc1ccccc1)Nc1ccc(C(=O)NO)cc1", "values": [{"measurement": "IC50", "setting": "Histone deacetylase [3]", "value": 0.11, "unit": "µM"}]}
{"compound": "Nc1ccccc1NC(=O)c1ccc(CNC(=O)CCCc2ccccc2)cc1", "values": [{"measurement": "IC50", "setting": "Histone deacetylase [3]", "value": 4.3, "unit": "µM"}]}
{"compound": "CCCC(=O)NCc1ccc(C(=O)Nc2ccccc2N)cc1", "values": [{"measurement": "IC50", "setting": "Histone deacetylase [3]", "value": 6, "unit": "µM"}]}
{"compound": "CCCC(CCC)C(=O)Nc1ccc(CCC(=O)Nc2ccccc2N)cc1", "values": [{"measurement": "IC50", "setting": "Histone deacetylase [2]", "value": "< 80", "unit": "µM"}]}
